For 4 molecules, Kd and log2_FC results are on record in publication PMC13376213, “Systematic discovery of motif-based interactions of the auxiliary domains of USP family deubiquitinases” (Nature Communications, 2026).

Where a chain is given by its changes, count along the chain named. pKd: −log10 of the molar value. Read-outs that look alike come from different tables or passages of the source. Ends that are not written are not given here. Peptide text beside a SMILES is read from it. * marks the point of attachment. FITC = O=C1OC2(c3ccc(O)cc3Oc3cc(O)ccc32)c2ccc(NC(=S)*)cc21

In test [1] the target is T1, USP33 DUSP2 domain (Homo sapiens, UniProt Q8TEY7).
T1 construct: USP33_DUSP2; Q8TEY7; DUSP2; 806; 921; 6xHis-GST (N, cleaved yes); made in house; host or cells: Escherichia coli BL21-Gold (DE3)
T1 sequence (Q8TEY7 with tags, fused parts or gaps): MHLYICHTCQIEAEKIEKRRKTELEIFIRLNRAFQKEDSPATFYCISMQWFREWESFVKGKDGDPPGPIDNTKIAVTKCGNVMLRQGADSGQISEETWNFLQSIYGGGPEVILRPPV
Nature of the test: FP-monitored affinity measurements, USP33 DUSP2. It counts as binding. The settings on record: USP33_DUSP2; direct FP titration (saturation) of the FITC-labelled peptide; read-out: KD. The method, then:
(§1) Proteins were expressed in Escherichia coli (E.coli) BL21-Gold (DE3) bacteria. The cDNAs encoding N-terminal 6-histidine-glutathione S-transferase tagged (6xHis-GST), 6xHis-tagged or GST-tagged protein domains in pETM33, pETM11, pGEX6P1 expression vectors respectively, were obtained from Genescript or kindly provided by MRC-PPU (Suppl. Data 1) The bacteria were transformed with the plasmid and grew at 37 °C in 2YT (5 g/L NaCl, 16 g/L tryptone and 10 g/L yeast extract) supplemented with Kanamycin (30 μg/mL) until reaching an OD600 of 0.7. Protein expression was induced with 0.3 mM isopropyl β-D-1 thiogalactopyranoside (IPTG) for 18 h at 18 °C while shaking. For zinc-finger domains, 50 μM of ZnSO4 was added during expression. The bacterial cultures were pelleted for 15 minutes at 4000 x g at 4 °C and stored at −20 °C until purification. The pellets were resuspended in lysis buffer (1× phosphate-buffered saline (PBS), 0.5 % Triton-X, 5 mM MgCl2, 10 μg/mL lysozyme, cOmplete^TM EDTA-free protease inhibitor cocktail (Roche), 10 μg/mL DNAseI) and incubated for 1 h shaking at 4 °C. […] The supernatant was incubated with glutathione (GSH) Sepharose (Cytiva) or Ni2+ Sepharose (Cytiva) for 1 h at 4 °C while shaking. The beads with the bound protein were washed with 1x PBS and eluted with 10 mM reduced glutathione in 50 mM Tris pH 8.0. For fluorescence polarization experiments, the proteins were not eluted from the beads, and the 6xHis-GST tag was cleaved overnight on GSH Sepharose beads at 4 °C while shaking with PreScission Protease in cleavage buffer (50 mM Tris pH 7.5, 150 mM NaCl, 1 mM DTT). The sample containing the cleaved domain was separated from the tag and protease and buffer-exchanged to 50 mM sodium phosphate buffer pH 7.4 with 1 mM DTT using a PD-10 desalting column (Cytiva). The purity and size of the proteins were analyzed by SDS-PAGE electrophoresis.
(§2) The measurements were performed at room temperature in a non-binding black half area 96-well plate (Corning) with a total volume of 50 μL per well. Peptides were obtained from GeneCust (France) with >95% purity. FITC-labeled peptides (N-terminally FITC-labeled without spacer and C-terminally amidated) were dissolved in dimethyl sulfoxide (DMSO), and unlabeled peptides (N-terminally acetylated and C-terminally amidated) were dissolved in 50 mM phosphate buffer pH 7.4. Saturation measurements were performed using a serial dilution of the protein domains in phosphate buffer (25 μL) and the addition of 10 nM FITC-labeled peptide (in phosphate buffer supplemented with 2 mM DTT) (25 μL). […] All measurements were performed in three technical replicates. The data were analyzed using GraphPad Prism version 9.2.0 for MacOS (GraphPad Software, San Diego, California USA, www.graphpad.com). The saturation curves were fitted to the quadratic equation, and the displacement curves were fitted to a sigmoidal dose-response equation as described previously.

In test [2] the target is T2, USP33 DUSP2 N835A (Homo sapiens, UniProt Q8TEY7, N835A).
T2 construct: USP33_DUSP2; Q8TEY7; DUSP2; 806; 921; 6xHis-GST (N, cleaved yes); made in house; host or cells: Escherichia coli BL21-Gold (DE3)
T2 sequence (Q8TEY7 806-921 N835A): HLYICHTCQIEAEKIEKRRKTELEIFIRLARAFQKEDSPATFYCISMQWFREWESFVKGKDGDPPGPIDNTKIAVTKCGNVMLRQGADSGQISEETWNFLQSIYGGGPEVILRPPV
Nature of the test: FP-monitored affinity measurements, USP33 DUSP2 single mutant. In kind it is binding. Particulars: USP33_DUSP2_N835A; direct FP titration (saturation) of the FITC-labelled peptide; read-out: KD. On the procedure: (§3) Proteins were expressed in Escherichia coli (E.coli) BL21-Gold (DE3) bacteria. The cDNAs encoding N-terminal 6-histidine-glutathione S-transferase tagged (6xHis-GST), 6xHis-tagged or GST-tagged protein domains in pETM33, pETM11, pGEX6P1 expression vectors respectively, were obtained from Genescript or kindly provided by MRC-PPU (Suppl. Data 1) The bacteria were transformed with the plasmid and grew at 37 °C in 2YT (5 g/L NaCl, 16 g/L tryptone and 10 g/L yeast extract) supplemented with Kanamycin (30 μg/mL) until reaching an OD600 of 0.7. Protein expression was induced with 0.3 mM isopropyl β-D-1 thiogalactopyranoside (IPTG) for 18 h at 18 °C while shaking. For zinc-finger domains, 50 μM of ZnSO4 was added during expression. […] For fluorescence polarization experiments, the proteins were not eluted from the beads, and the 6xHis-GST tag was cleaved overnight on GSH Sepharose beads at 4 °C while shaking with PreScission Protease in cleavage buffer (50 mM Tris pH 7.5, 150 mM NaCl, 1 mM DTT). […] The purity and size of the proteins were analyzed by SDS-PAGE electrophoresis.
(§4) The measurements were performed at room temperature in a non-binding black half area 96-well plate (Corning) with a total volume of 50 μL per well. […] The data were analyzed using GraphPad Prism version 9.2.0 for MacOS (GraphPad Software, San Diego, California USA, www.graphpad.com). […]

In test [3] the target is T3, USP33 DUSP2 K863E-K865E (Homo sapiens, UniProt Q8TEY7, K863E/K865E).
T3 construct: USP33_DUSP2; Q8TEY7; DUSP2; 806; 921; 6xHis-GST (N, cleaved yes); made in house; host or cells: Escherichia coli BL21-Gold (DE3)
T3 sequence (Q8TEY7 806-921 K863E/K865E): T2 sequence (Q8TEY7 806-921 N835A) with A30N, K58E, K60E
Nature of the test: FP-monitored affinity measurements, USP33 DUSP2 double mutant. It counts as binding. Particulars: USP33_DUSP2_K863E/K865E; direct FP titration (saturation) of the FITC-labelled peptide; read-out: KD. The method, then: as §3, §4

Test [4] deals with T4, USP11 DUSP-UBL domain (Homo sapiens, UniProt P51784).
T4 construct: USP11_UBL; P51784; UBL; 6xHis-GST (N, cleaved yes); made in house; host or cells: Escherichia coli BL21-Gold (DE3)
T4 sequence (P51784 67-288): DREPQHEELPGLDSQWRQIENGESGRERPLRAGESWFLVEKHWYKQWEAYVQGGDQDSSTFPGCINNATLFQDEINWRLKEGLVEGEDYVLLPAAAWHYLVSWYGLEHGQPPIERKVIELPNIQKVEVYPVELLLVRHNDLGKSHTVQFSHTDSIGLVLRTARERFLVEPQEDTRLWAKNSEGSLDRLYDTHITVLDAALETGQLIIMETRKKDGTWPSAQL
Nature of the test: FP-based affinity measurements, USP11 DUSP-UBL. In kind it is binding. On the procedure:
as §1
as §2, with “The saturation curves were fitted to the quadratic equation, and the displacement curves were fitted to a sigmoidal dose-response equation as described previously.” left out

In test [5] the test system is FLAG-USP20. In words: IP-MS of FLAG-USP20 and variants vs empty vector. It counts as cell-based, human. Particulars: IP-MS, FLAG-USP20-ΔUBP vs EV; comparison bh_2 Sample_Limma_ImpMedInt_USP20_UBP_domain/EV.
Procedure: For transfection, 1x10^6 HEK293 cells were seeded in 10 cm dishes with DMEM, 10% FBS, 1% L-G (without antibiotic) medium, incubated at 37 °C, with 5 % CO2 for 24 h. Cells were transfected with a transfection mix containing 970 mL of Opti-MEM (Thermo Fisher Scientific), 20 μL of PEI stock (1 mg/mL) and 5 mg of the desired cDNA. For co-transfection, 2.5 μg of DNA of each plasmid was used. The mix was vortexed for 15 s and incubated at room temperature for 15–20 min. The transfection mix was added to the dish and gently mixed. Plates were incubated at 37 °C for 36–48 h before harvesting. For USP33 constructs, 5 μM Bortezomib (proteasome inhibitor) was added 4 hours before harvesting the cells.
FLAG fusion proteins were immunoprecipitated from HEK293 cells transfected with plasmids encoding the protein of interest using the anti-FLAG M2 affinity gel from Sigma-Aldrich. […] The cell lysate was clarified by centrifugation at 17,000 x g, at 4 °C for 12 min, and the supernatant was transferred to a clean, pre-chilled low-binding Eppendorf tube. […] The IP samples were centrifuged at 6500 x g at 4 °C for 30 s. The supernatant containing the unbound proteins was transferred to a clean tube. The resin was washed three times with 500 μL of TBS, centrifuged at 6500 x g at 4 °C for 30 s. The bound FLAG fusion protein was eluted with 100 μL of 150 ng/μL 3X FLAG peptide (Sigma) in TBS and incubated in the cold room for 1 h or overnight. The tube was centrifuged at 6500 x g at 4 °C for 30 s; the eluted proteins were transferred to a clean tube. The eluted proteins were prepared for analysis by western blot or Mass Spectrometry.
Immunoprecipitation (IP) was carried out as described above; four technical replicates of each IP condition were performed, and the empty vector was used as a negative control. The eluted protein was processed following the Strap-micro protocol (Protifi). The IP elution containing 1–100 μg protein was 1:1 mixed with 2X lysis buffer (10% SDS, 100 mM TEAB pH 8.5). […] Samples were vortexed, mixed with 165 μL of 100 mM TEAB in 90% methanol, and passed through an S-Trap micro column at 4000 g for 30 s to trap the proteins. The column was washed with 150 μL of 100 mM TEAB in 90% methanol (at 4,000 x g for 30 seconds) three times. The S-Trap column was centrifuged again and transferred to a clean 2 mL tube for digestion with 20 μL of digestion buffer (1 μg trypsin per 10 μg sample in 50 mM TEAB), at 37 °C overnight in a thermomixer without shaking. The digested peptides were eluted with 40 mL of 50 mM TEAB in water, 40 mL of 0.2 % formic acid in water, and 40 mL of 50 % acetonitrile in water, centrifuging at 4000 x g for 1 min each time. The three elutions were pooled in a low-binding tube, placed on dry ice until frozen, dried in a SpeedVac vacuum (Thermo Scientific), and proceeded with the LCMS analysis.
Eluted peptides were analyzed using data-independent acquisition mode on the mass spectrometer.
Peptides were searched against the Uniprot Swissprot Human database (released on 02/01/2023) supplemented with the USP20 and USP33 mutants using DiaNN (v1.9.0)[62] operating in library-free mode. Data filtering and statistical analysis were carried out in Python (v3.9.0) using the packages pandas, numpy, sklearn, scipy, rpy2, Plotnine, and Plotly and R (v4.4.3) using the package limma.
Protein groups identified with a single peptide or quantified in fewer than three replicates in at least 1 condition were filtered out. Protein group intensities were median normalized and missing values were imputed using a Gaussian distribution centered on the median with a downshift of 1.8 and width of 0.3 (relative to the standard deviation).

With `CSCC[C@H](NC(=S)Nc1ccc2c(c1)C(=O)OC21c2ccc(O)cc2Oc2cc(O)ccc21)C(=O)N[C@@H](CC(=O)O)C(=O)N[C@@H](CC(=O)O)C(=O)N[C@@H](CC(=O)O)C(=O)N[C@@H](Cc1ccccc1)C(=O)N[C@@H](CCC(N)=O)C(=O)N[C@@H](CC(C)C)C(=O)N[C@@H](CCCNC(=N)N)C(=O)N[C@@H](CO)C(=O)N[C@@H](Cc1ccccc1)C(=O)N[C@@H](CC(=O)O)C(=O)N[C@@H](CCC(N)=O)C(=O)N[C@@H](CC(C)C)C(=O)N[C@@H](CO)C(N)=O` [FITC_HIF1A] ({FITC}-MDDDFQLRSFDQLS-NH2), the values for the pKd in test [1], in test [2] and in test [3] were 4.50, around 3.45 and around 3.50, respectively. In the case of Ac-SAVTYPDWIGQSYSEV-NH2 [ORAI1_USP11], the pKd in test [4] (USP11_DUSP_UBL, FP displacement of the FITC-labelled peptide by unlabelled peptide, read-out: KD) was around 3.68. For the molecule SAVTYPDWIGQSYSEV [ORAI1_48-63], in test [4] (competitive FP, technical triplicates, read-out: KD, USP11 DUSP-UBL, unlabeled peptide (competitive binding)), the pKd was below 3.70. Molecule TMEM131L showed a log2_FC in test [5] of 4.636.
